Assay results taken from patent US20130136719A1, “COMPOUNDS AND METHODS FOR THE TREATMENT OR PREVENTION OF FLAVIVIRUS INFECTIONS” (VERTEX PHARMACEUTICALS INCORPORATED, priority 2009, published 2013).
Read-outs that look alike come from different tables or passages of the source.

Tests used:
[1] = target: HCV RNA-dependent RNA polymerase (NS5B protein) (Hepatitis C virus genotype 1b, UniProt P26663); test: biochemical; parameters: species or system HCV-Bk strain
[2] = tested on: HCV replicon (genotype 1b) in Huh7 cell line ET; test: microbe, parasite or virus in culture; type: cell-based, HCV genotype 1b; conditions: read-out: HCV-Replicon-Luci-Et-1b_IC50
[3] = [3H]Thymidine incorporation assay (CC50); conditions: human
[4] = tested on: HCV sub-genomic replicon of genotype 1a in cell line W11.8; test: microbe, parasite or virus in culture; type: cell-based, HCV genotype 1a; conditions: Hepatitis C virus, W11.8, 96 h, read-out: HCV-Replicon-ELISA-1a IC50

Sequence of HCV RNA-dependent RNA polymerase (NS5B protein) (P26663 2420-2989 limits assumed): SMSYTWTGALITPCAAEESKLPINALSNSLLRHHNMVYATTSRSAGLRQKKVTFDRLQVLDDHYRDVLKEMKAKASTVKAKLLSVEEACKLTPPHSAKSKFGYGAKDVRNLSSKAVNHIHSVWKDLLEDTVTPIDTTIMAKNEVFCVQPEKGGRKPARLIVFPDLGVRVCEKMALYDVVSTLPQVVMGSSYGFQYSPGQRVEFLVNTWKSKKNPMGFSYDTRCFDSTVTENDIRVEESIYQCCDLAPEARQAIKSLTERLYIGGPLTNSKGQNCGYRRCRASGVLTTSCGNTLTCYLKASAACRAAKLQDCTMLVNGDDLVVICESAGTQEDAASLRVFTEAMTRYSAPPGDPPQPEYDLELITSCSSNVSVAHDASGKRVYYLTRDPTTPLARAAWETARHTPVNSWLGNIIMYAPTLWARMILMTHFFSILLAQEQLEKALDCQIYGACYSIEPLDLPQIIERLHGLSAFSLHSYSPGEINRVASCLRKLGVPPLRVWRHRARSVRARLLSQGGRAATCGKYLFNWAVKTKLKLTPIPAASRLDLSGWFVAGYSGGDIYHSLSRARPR

| Compound | IC50 [1] [nM] | IC50 ([2]; Hepatitis C virus, Huh-7, 96 h) [nM] | CC50 at 72 h [3] [nM] | IC50 [4] [nM] | IC50 ([1]; read-out: HCV Polymerase_1b IC50, recombinant truncated NS5B genotype 1b, poly rA/oligo dT, [3H]UTP SPA) [nM] | IC50 [2] [nM] |
| --- | --- | --- | --- | --- | --- | --- |
| CC(C)(C)C#Cc1cc(N(C(=O)c2ccc(Cl)cc2Cl)[C@H]2CC[C@H](O)CC2)c(C(=O)O)s1 [Compound 2, 3-[(2,4-Dichloro-benzoyl)-(trans-4-hydroxy-cyclohexyl)-amino]-5-(3,3-dimethyl-but-1-ynyl)-thiophene-2-carboxylic acid] | 100 to 1000 | < 100 |  |  |  |  |
| Cc1ccc(C(=O)N(c2cc(C#CC(C)(C)C)sc2C(=O)O)[C@H]2CC[C@H](O)CC2)c(F)c1F [Compound 89, 3-[(2,3-Difluoro-4-methyl-benzoyl)-(trans-4-hydroxy-cyclohexyl)-amino]-5-(3,3-dimethyl-but-1-ynyl)-thiophene-2-carboxylic acid] | 1000 to 10000 |  | 10000 to 100000 |  |  |  |
| Cc1ccc(C(=O)N(c2cc(C#CC(C)(C)C)sc2C(=O)O)[C@H]2CC[C@H](O)CC2)cc1F [Compound 24, 5-(3,3-Dimethyl-but-1-ynyl)-3-[(3-fluoro-4-methyl-benzoyl)-(trans-4-hydroxy-cyclohexyl)-amino]-thiophene-2-carboxylic acid] | 1000 to 10000 | < 100 | 10000 to 100000 |  |  |  |
| CC(C)(C)C#Cc1cc(N(C(=O)c2ccc(Cl)cc2Cl)C2CCOCC2)c(C(=O)O)s1 [Compound 26, 3-[(2,4-Dichloro-benzoyl)-(tetrahydro-pyran-4-yl)-amino]-5-(3,3-dimethyl-but-1-ynyl)-thiophene-2-carboxylic acid] | 1000 to 10000 | < 100 | 10000 to 100000 |  |  |  |
| Cc1ccccc1C(=O)N(c1cc(C#CC(C)(C)C)sc1C(=O)O)[C@H]1CC[C@H](O)CC1 [Compound 88, 5-(3,3-Dimethyl-but-1-ynyl)-3-[(trans-4-hydroxy-cyclohexyl)-(2-methyl-benzoyl)-amino]-thiophene-2-carboxylic acid] | 1000 to 10000 |  | > 100000 |  |  |  |
| CC(C)(C)C#Cc1cc(N(C(=O)c2ccc(C(F)(F)F)cc2)[C@H]2CC[C@H](O)CC2)c(C(=O)O)s1 [Compound 22] | 1000 to 10000 |  |  |  |  |  |
| CC(C)(C)C#Cc1cc(N(C(=O)c2ccccc2Cl)[C@H]2CC[C@H](O)CC2)c(C(=O)O)s1 [Compound 87, 3-[(2-Chloro-benzoyl)-(trans-4-hydroxy-cyclohexyl)-amino]-5-(3,3-dimethyl-but-1-ynyl)-thiophene-2-carboxylic acid] | 1000 to 10000 |  | > 100000 |  |  |  |
| CC(C)(C)C#Cc1cc(N(C(=O)c2ccc(F)cc2)[C@H]2CC[C@H](O)CC2)c(C(=O)O)s1 [Compound 51, 5-(3,3-Dimethyl-but-1-ynyl)-3-[(4-fluoro-benzoyl)-(trans-4-hydroxy-cyclohexyl)-amino]-thiophene-2-carboxylic acid] | 1000 to 10000 |  | > 100000 |  |  |  |
| Cc1ccc(C(=O)N(c2cc(C#CC(C)(C)C)sc2C(=O)O)[C@H]2CC[C@H](O)CC2)c(C)c1 [Compound 18, 3-[(2,4-Dimethyl-benzoyl)-(trans-4-hydroxy-cyclohexyl)-amino]-5-(3,3-dimethyl-but-1-ynyl)-thiophene-2-carboxylic acid] | 100 to 1000 | < 100 | 10000 to 100000 |  |  |  |
| Cc1ccc(C(=O)N(c2cc(C#CC(C)(C)C)sc2C(=O)O)[C@H]2CC[C@H](O)CC2)cc1 [Compound 19, 5-(3,3-Dimethyl-but-1-ynyl)-3-[(trans-4-hydroxy-cyclohexyl)-(4-methyl-benzoyl)-amino]-thiophene-2-carboxylic acid] | 1000 to 10000 |  |  |  |  |  |
| Cc1ccc(C(=O)N(c2cc(C#CC(C)(C)C)sc2C(=O)O)[C@H]2CC[C@H](O)CC2)c(Cl)c1 [Compound 53, 3-[(2-Chloro-4-methyl-benzoyl)-(trans-4-hydroxy-cyclohexyl)-amino]-5-(3,3-dimethyl-but-1-ynyl)-thiophene-2-carboxylic acid] | 1000 to 10000 |  | 10000 to 100000 |  |  |  |
| CC(C)(C)C#Cc1cc(N(CCO)C(=O)c2ccc(Cl)cc2Cl)c(C(=O)O)s1 [Compound 97, 3-[(2,4-Dichloro-benzoyl)-(2-hydroxy-ethyl)-amino]-5-(3,3-dimethyl-but-1-ynyl)-thiophene-2-carboxylic acid] | 100 to 1000 | 100 to 1000 | 10000 to 100000 |  |  |  |
| Cc1ccc(C(=O)N(c2cc(C#CC(C)(C)C)sc2C(=O)O)[C@H]2CC[C@H](O)CC2)c(F)c1 [Compound 54, 5-(3,3-Dimethyl-but-1-ynyl)-3-[(2-fluoro-4-methyl-benzoyl)-(trans-4-hydroxy-cyclohexyl)-amino]-thiophene-2-carboxylic acid] | 1000 to 10000 |  |  |  |  |  |
| CC(C)(C)C#Cc1cc(N(C(=O)c2ccc(Cl)c(F)c2)[C@H]2CC[C@H](O)CC2)c(C(=O)O)s1 [Compound 52, 3-[(4-Chloro-3-fluoro-benzoyl)-(trans-4-hydroxy-cyclohexyl)-amino]-5-(3,3-dimethyl-but-1-ynyl)-thiophene-2-carboxylic acid] | 1000 to 10000 |  | 10000 to 100000 |  |  |  |
| CC(C)(C)C#Cc1cc(N(C(=O)c2ccc(Cl)cc2F)[C@H]2CC[C@H](O)CC2)c(C(=O)O)s1 [Compound 17, 3-[(4-Chloro-2-fluoro-benzoyl)-(trans-4-hydroxy-cyclohexyl)-amino]-5-(3,3-dimethyl-but-1-ynyl)-thiophene-2-carboxylic acid] | 1000 to 10000 | < 100 |  |  |  |  |
| CC(C)(C)C#Cc1cc(N(C(=O)c2ccc(Cl)cc2)[C@H]2CC[C@H](O)CC2)c(C(=O)O)s1 [Compound 16, 3-[(4-Chloro-benzoyl)-(trans-4-hydroxy-cyclohexyl)-amino]-5-(3,3-dimethyl-but-1-ynyl)-thiophene-2-carboxylic acid] | 100 to 1000 |  | 10000 to 100000 |  |  |  |
| COCCN(C(=O)c1ccc(Cl)cc1Cl)c1cc(C#CC(C)(C)C)sc1C(=O)O [Compound 44, 3-[(2,4-Dichloro-benzoyl)-(2-methoxy-ethyl)-amino]-5-(3,3-dimethyl-but-1-ynyl)-thiophene-2-carboxylic acid] | 100 to 1000 | < 100 | 10000 to 100000 | 100 to 1000 |  |  |
| CC(C)N(C(=O)c1ccc(Cl)cc1Cl)c1cc(C#CC(C)(C)C)sc1C(=O)O [Compound 1, 3-[(2,4-Dichloro-benzoyl)-isopropyl-amino]-5-(3,3-dimethyl-but-1-ynyl)-thiophene-2-carboxylic acid] |  |  |  |  | 100 to 1000 | 100 to 1000 |
| CC(C)N(C(=O)c1ccc(Cl)cc1Cl)c1cc(C#CC(C)(C)C)sc1C(=O)O [Compound 96, Sodium 3-[(2,4-dichloro-benzoyl)-isopropyl-amino]-5-(3,3-dimethyl-but-1-ynyl)-thiophene-2-carboxylate] | 100 to 1000 | < 100 | 10000 to 100000 |  |  |  |
